Laboratory results as given in patent US11453677B2 (priority 2016, dated 2022).

What was measured:
Assay in all cases: cells
Type in all cases: cell-based
[1] = system: influenza A virus minigenome (PB2, PB1, PA, NP) RNP_Alaska in 293T cells; conditions: HEK-293T, 48 h, read-out: RNP_Alaska EC50
[2] = system: influenza A virus minigenome (PB2, PB1, PA, NP) RNP_CAL in 293T cells; conditions: HEK-293T, 48 h, read-out: RNP_CAL_EC50
[3] = system: influenza virus minigenome (PB2, PB1, PA, NP) RNP_Hubei in 293T cells; conditions: unidentified influenza virus, HEK-293T, 48 h, read-out: RNP_Hubei EC50

## CSc1cccc([C@H](c2ccc(F)cc2)[C@H]2Cn3ccnc3-c3c(O)c(=O)cnn32)c1 [Example 28, (S)-6-((S)-(4-fluorophenyl)(3-(methylthio)phenyl)methyl)-11-hydroxy-5,6-dihydro-10H-imidazo[2′,1′:3,4]pyrazino[1,2-b]pyridazin-10-one]
[1]
  EC50: 0.072 µM
[2]
  EC50: 0.081 µM
[3]
  EC50: 0.078 µM

## O=c1cnn2c(c1O)-c1nccn1C[C@@H]2[C@@H](c1ccc(F)cc1)c1ccccc1Cl [Example 29, (S)-6-((S)-(2-chlorophenyl)(4-fluorophenyl)methyl)-11-hydroxy-5,6-dihydro-10H-imidazo[2′,1′:3,4]pyrazino[1,2-b]pyridazin-10-one]
[1]
  EC50: 0.07 µM
[2]
  EC50: 0.072 µM
[3]
  EC50: 0.058 µM

## O=c1cnn2c(c1O)-c1nccn1C[C@@H]2[C@@H](c1ccc(F)cc1)c1cccc(Cl)c1 [Example 31, (S)-6-((S)-(3-chlorophenyl)(4-fluorophenyl)methyl)-11-hydroxy-5,6-dihydro-10H-imidazo[2′,1′:3,4]pyrazino[1,2-b]pyridazin-10-one]
[1]
  EC50: 0.034 µM
[2]
  EC50: 0.037 µM
[3]
  EC50: 0.064 µM

## O=c1cnn2c(c1O)-c1nccn1C[C@@H]2[C@@H](c1ccc(F)cc1)c1ccc(C(F)(F)F)cc1 [Example 32, (S)-6-((R)-(4-fluorophenyl)(4-(trifluoromethyl)phenyl)methyl)-11-hydroxy-5,6-dihydro-10H-imidazo[2′,1′:3,4]pyrazino[1,2-b]pyridazin-10-one]
[1]
  EC50: 0.28 µM
[2]
  EC50: 0.25 µM
[3]
  EC50: 0.72 µM

## O=c1cnn2c(c1O)-c1nccn1C[C@@H]2[C@@H](c1ccc(F)cc1)c1ccc(Cl)cc1 [Example 33, (S)-6-((S)-(4-chlorophenyl)(4-fluorophenyl)methyl)-11-hydroxy-5,6-dihydro-10H-imidazo[2′,1′:3,4]pyrazino[1,2-b]pyridazin-10-one]
[1]
  EC50: 0.087 µM
[2]
  EC50: 0.11 µM
[3]
  EC50: 0.27 µM

## O=c1cnn2c(c1O)-c1nccn1C[C@@H]2[C@@H](c1ccc(F)cc1)c1cc(F)cc(F)c1 [Example 34, (S)-6-((S)-(3,5-difluorophenyl)(4-fluorophenyl)methyl)-11-hydroxy-5H-imidazo[2′,1′:3,4]pyrazino[1,2-b]pyridazin-10(6H)-one]
[1]
  EC50: 0.033 µM
[2]
  EC50: 0.025 µM
[3]
  EC50: 0.034 µM

## Cc1ccccc1[C@H](c1ccc(F)cc1Br)[C@H]1Cn2ccnc2-c2c(O)c(=O)cnn21 [Example 35, (S)-6-((R)-(2-bromo-4-fluorophenyl)(o-tolyl)methyl)-11-hydroxy-5,6-dihydro-10H-imidazo[2′,1′:3,4]pyrazino[1,2-b]pyridazin-10-one]
[1]
  EC50: 0.098 µM
[2]
  EC50: 0.05 µM
[3]
  EC50: 0.11 µM

## O=c1cnn2c(c1O)-c1nccn1C[C@@H]2[C@H](c1cccc(F)c1)c1ccc(F)cc1Br [Example 36, (S)-6-((R)-(2-bromo-4-fluorophenyl)(3-fluorophenyl)methyl)-11-hydroxy-5,6-dihydro-10H-imidazo[2′,1′:3,4]pyrazino[1,2-b]pyridazin-10-one]
[1]
  EC50: 0.021 µM
[2]
  EC50: 0.027 µM
[3]
  EC50: 0.063 µM

## Cc1cccc([C@H](c2ccc(F)cc2)[C@H]2Cn3ccnc3-c3c(O)c(=O)cnn32)c1 [Example 38, (S)-6-((S)-(4-fluorophenyl)(m-tolyl)methyl)-11-hydroxy-5,6-dihydro-10H-imidazo[2′,1′:3,4]pyrazino[1,2-b]pyridazin-10-one]
[1]
  EC50: 0.043 µM
[2]
  EC50: 0.049 µM
[3]
  EC50: 0.097 µM

## O=c1cnn2c(c1O)-c1nccn1C[C@@H]2[C@H](c1ccc(F)cc1)c1ccc(F)cc1Br [Example 39, (S)-6-((R)-(2-bromo-4-fluorophenyl)(4-fluorophenyl)methyl)-11-hydroxy-5,6-dihydro-10H-imidazo[2′,1′:3,4]pyrazino[1,2-b]pyridazin-10-one]
[1]
  EC50: 0.025 µM
[2]
  EC50: 0.033 µM
[3]
  EC50: 0.053 µM

## Cc1ccccc1[C@H](c1ccc(F)cc1)[C@H]1Cn2ccnc2-c2c(O)c(=O)cnn21 [Example 40, (S)-6-((S)-(4-fluorophenyl)(o-tolyl)methyl)-11-hydroxy-5,6-dihydro-10H-imidazo[2′,1′:3,4]pyrazino[1,2-b]pyridazin-10-one]
[1]
  EC50: 0.02 µM
[2]
  EC50: 0.032 µM
[3]
  EC50: 0.035 µM

## CS(=O)(=O)c1cccc([C@H](c2ccc(F)cc2)[C@H]2Cn3ccnc3-c3c(O)c(=O)cnn32)c1 [Example 42, (S)-6-((S)-(4-fluorophenyl)(3-(methylsulfonyl)phenyl)methyl)-11-hydroxy-5,6-dihydro-10H-imidazo[2′,1′:3,4]pyrazino[1,2-b]pyridazin-10-one]
[1]
  EC50: 3.6 µM
[2]
  EC50: 2.8 µM
[3]
  EC50: 3.8 µM

## N#Cc1cccc([C@H](c2ccc(F)cc2)[C@H]2Cn3ccnc3-c3c(O)c(=O)cnn32)c1 [Example 43, 3-((S)-(4-fluorophenyl)((S)-11-hydroxy-10-oxo-5,6-dihydro-10H-imidazo[2′,1′:3,4]pyrazino[1,2-b]pyridazin-6-yl)methyl)benzonitrile]
[1]
  EC50: 0.14 µM
[2]
  EC50: 0.039 µM
[3]
  EC50: 0.17 µM

## N#Cc1ccccc1[C@H](c1ccc(F)cc1)[C@H]1Cn2ccnc2-c2c(O)c(=O)cnn21 [Example 44, 2-((S)-(4-fluorophenyl)((S)-11-hydroxy-10-oxo-5,6-dihydro-10H-imidazo[2′,1′:3,4]pyrazino[1,2-b]pyridazin-6-yl)methyl)benzonitrile]
[1]
  EC50: 0.55 µM
[2]
  EC50: 0.3 µM
[3]
  EC50: 0.31 µM

## N#Cc1ccc([C@H](c2ccc(F)cc2)[C@H]2Cn3ccnc3-c3c(O)c(=O)cnn32)cc1 [Example 45, 4-((R)-(4-fluorophenyl)((S)-11-hydroxy-10-oxo-5,6-dihydro-10H-imidazo[2′,1′:3,4]pyrazino[1,2-b]pyridazin-6-yl)methyl)benzonitrile]
[1]
  EC50: 0.076 µM
[2]
  EC50: 0.042 µM
[3]
  EC50: 0.16 µM

## N#Cc1cccc([C@H](c2cccc(F)c2)[C@H]2Cn3ccnc3-c3c(O)c(=O)cnn32)c1 [Example 46, 3-((R)-(3-fluorophenyl)((S)-11-hydroxy-10-oxo-5,6-dihydro-10H-imidazo[2′,1′:3,4]pyrazino[1,2-b]pyridazin-6-yl)methyl)benzonitrile]
[1]
  EC50: 0.15 µM
[2]
  EC50: 0.064 µM
[3]
  EC50: 0.19 µM

## O=c1cnn2c(c1O)-c1nc(Br)c(Br)n1C[C@@H]2C(c1ccc(F)cc1)c1ccc(F)cc1 [Example 48, (S)-6-(bis(4-fluorophenyl)methyl)-2,3-dibromo-11-hydroxy-5,6-dihydro-10H-imidazo[2′,1′:3,4]pyrazino[1,2-b]pyridazin-10-one]
[1]
  EC50: 5 µM
[2]
  EC50: 4.3 µM
[3]
  EC50: 12 µM

## N#Cc1cnc2n1C[C@H](C(c1ccc(F)cc1)c1ccc(F)cc1)n1ncc(=O)c(O)c1-2 [Example 49, (S)-6-(bis(4-fluorophenyl)methyl)-11-hydroxy-10-oxo-5,6-dihydro-10H-imidazo[2′,1′:3,4]pyrazino[1,2-b]pyridazine-3-carbonitrile]
[1]
  EC50: 0.87 µM
[2]
  EC50: 0.82 µM
[3]
  EC50: 0.56 µM

## O=c1cnn2c(c1O)-c1ncc(CO)n1C[C@@H]2C(c1ccc(F)cc1)c1ccc(F)cc1 [Example 50, (S)-6-(bis(4-fluorophenyl)methyl)-11-hydroxy-3-(hydroxymethyl)-5,6-dihydro-10H-imidazo[2′,1:3,4]pyrazino[1,2-b]pyridazin-10-one]
[1]
  EC50: 0.43 µM
[2]
  EC50: 0.1 µM
[3]
  EC50: 0.7 µM

## Cc1ccccc1[C@H](c1ccc(F)cc1)[C@H]1Cn2c(CO)cnc2-c2c(O)c(=O)cnn21 [Example 51, (S)-6-((S)-(4-fluorophenyl)(o-tolyl)methyl)-11-hydroxy-3-(hydroxymethyl)-5,6-dihydro-10H-imidazo[2′,1′:3,4]pyrazino[1,2-b]pyridazin-10-one]
[1]
  EC50: 0.23 µM
[2]
  EC50: 0.09 µM
[3]
  EC50: 0.16 µM

## O=c1ccn2c(c1O)-c1ncc(-c3cn[nH]c3)n1C[C@@H]2C(c1ccccc1)c1ccccc1 [Example 52, (S)-6-benzhydryl-11-hydroxy-3-(1H-pyrazol-4-yl)-5,6-dihydro-10H-imidazo[1,2-a]pyrido[2,1-c]pyrazin-10-one]
[1]
  EC50: 5.1 µM
[2]
  EC50: 8.3 µM
[3]
  EC50: 0.97 µM

## O=c1ccn2c(c1O)-c1ncc(-c3ccccc3)n1C[C@@H]2C(c1ccccc1)c1ccccc1 [Example 53, (S)-6-benzhydryl-11-hydroxy-3-phenyl-5H-imidazo [1,2-a] pyrido[2,1-c]pyrazin-10(6H)-one]
[1]
  EC50: 0.54 µM
[2]
  EC50: 3 µM
[3]
  EC50: 0.19 µM

## CC(O)c1cnc2n1C[C@H](C(c1ccccc1)c1ccccc1)n1ccc(=O)c(O)c1-2 (stereo partly drawn) [Example 55, (6S)-6-benzhydryl-11-hydroxy-3-(1-hydroxyethyl)-5H-imidazo [1,2-a]pyrido[2,1-c]pyrazin-10(6H)-one]
[1]
  EC50: 2.6 µM
[2]
  EC50: 1.7 µM
[3]
  EC50: 6.6 µM

## COCc1cnc2n1C[C@H](C(c1ccccc1)c1ccccc1)n1ccc(=O)c(O)c1-2 [Example 56, (S)-6-benzhydryl-11-hydroxy-3-(methoxymethyl)-5H-imidazo [1,2-a]pyrido[2,1-c]pyrazin-10(6H)-one]
[1]
  EC50: 0.28 µM
[2]
  EC50: 0.092 µM
[3]
  EC50: 0.27 µM

## O=c1ccn2c(c1O)-c1ncc(C(F)F)n1C[C@@H]2C(c1ccccc1)c1ccccc1 [Example 57, (S)-6-benzhydryl-3-(difluoromethyl)-11-hydroxy-5H-imidazo[1,2-a]pyrido[2,1-c]pyrazin-10(6H)-one]
[1]
  EC50: 0.22 µM
[2]
  EC50: 0.18 µM
[3]
  EC50: 0.58 µM

## O=c1ccn2c(c1O)-c1ncc(CN3CCSCC3)n1C[C@@H]2C(c1ccccc1)c1ccccc1 [Example 62, (S)-6-benzhydryl-11-hydroxy-3-(thiomorpholinomethyl)-5,6-dihydro-10H-imidazo[1,2-a]pyrido[2,1-c]pyrazin-10-one]
[1]
  EC50: 1.9 µM
[2]
  EC50: 0.64 µM
[3]
  EC50: 1.5 µM
